Source: US20200255492A1, “LEPTIN PEPTIDES AND THEIR USE FOR TREATING NEUROLOGICAL DISORDERS” (UNIVERSITY OF DUNDEE, priority 2017, published 2020)

Key:
[1] = system: acute hippocampal slices; experiment: HFS-induced LTP with leptin hexamers; assay type: cell-based, Sprague Dawley rats; conditions: 10 nM for 50 min prior to HFS; control LTP 117±10.8% / 125±4.9%
Protocol: Parasagittal hippocampal slices (300 μm) were prepared from either P13-21 or 12-24-week-old male Sprague Dawley rats as previously (Moult et al. 2010). Brains were rapidly removed and placed in ice-cold artificial CSF (aCSF; bubbled with 95% O2 and 5% CO2) containing the following (in mm): 124 NaCl, 3 KCl, 26 NaHCO3, 1.25 NaH2PO4, 2 CaCl2, 1 MgSO4, and 10 d-glucose. Once prepared, parasagittal slices were allowed to recover at room temperature in oxygenated aCSF for 1 h before use. Slices were transferred to a submerged chamber maintained at room temperature and perfused with artificial cerebrospinal fluid at 2 ml min^−1. Standard extracellular recordings were used to monitor evoked field excitatory postsynaptic potentials (fEPSP) from stratum radiatum. The Schaffer collateral-commissural pathway was stimulated (constant voltage; 0.1 ms) at 0.033 Hz, using a stimulus intensity that evoked a peak amplitude ˜50% of the maximum. Synaptic potentials were low pass filtered at 2 kHz and digitally sampled at 10 kHz. The fEPSP slope was measured and expressed relative to baseline. Synaptic records are the average of 4 consecutive responses and stimulus artefacts are blanked for clarity. Recordings were made using an Axopatch 200B amplifier and analyzed using LTP v2.4 software. In synaptic plasticity studies, the degree of potentiation was calculated 30-35 min after HFS and expressed as a percentage of baseline±standard error of mean (SEM).
To determine if the leptin hexamers influence the magnitude of activity-dependent synaptic plasticity, standard extracellular recording techniques were used to assess the effects of leptin (116-121, 117-122, 118-123, 120-125, 124-129 and 125-130) on the magnitude of LTP induced by high frequency stimulation (100 Hz, 1 s) in acute hippocampal slices. […] In parallel studies, application of leptin (118-123; 158±3.8%; n=7; p<0.05; FIG. 8) or leptin (120-125; to 163±8.8% of baseline; n=5; p<0.05) also facilitated LTP, compared to control LTP (FIG. 8).

[2] = system: leptin-deficient ob/ob mice; conditions: cited from earlier work
[3] = Samson et al. 1996; cited from earlier work
[4] = system: STAT3; experiment: ELISA ratio of phospho-STAT3 to pan-STAT3; assay type: cell-based, human; conditions: 1 nM; 3 h
Protocol: (§1) The human neuroblastoma cell line, SH-SY5Y (ECACC, UK) was maintained in Dulbecco's Modified Eagle Medium supplemented with glucose ([…]) and 10% (v/v) cosmic calf serum (Fisher Scientific, UK) at 37° C. in a humidified atmosphere of 5% CO2, 95% air and allowed to reach 70-80% confluence before seeding. Cells (passage 10-18) were plated at 10 000 cells per well in 96 well tissue culture plates (Nunc, VWR, UK) and at a density of 2×10^5 cells in 35 mm dishes for protein extraction. To induce differentiation, cells were cultured in DMEM supplemented with glucose ([…]), 1% (v/v) cosmic calf serum and 10 μM retinoic acid for 5 days. Thereafter they were incubated in DMEM supplemented with glucose ([…]), serum replacement 2 (2%; Sigma, UK) and 18 μM 5-fluorodeoxyuridine to inhibit proliferation of undifferentiated cells. The 50% of the medium was changed every 2-3 days and pharmacological treatment was carried out 7 days after switching to this medium. Reagents used were (from Sigma UK unless stated) 0.1-10 nM human leptin and leptin (116-130); 0.1-10 nM leptin (22-56; Bachem; Switzerland); 10 nM leptin (116-121) leptin (117-122), leptin (124-129) or leptin (125-130; all Severn Biotech, UK); 5 μM copper chloride; […], 5 μM WP1066 or 50 nM wortmannin. […]

[5] = system: Akt; experiment: ELISA ratio of phospho-Akt to pan-Akt; assay type: cell-based, human; conditions: 1 nM; 3 h
Protocol: as §1

[6] = system: mitochondria; experiment: MitoRed analysis of mitochondrial morphology after 6-OHDA (cellular Parkinson's Disease model); assay type: cell-based; conditions: 0.1 nM plus 100 μM 6-OHDA; 1 hour
Protocol: Cultures were established on 3 separate occasions in quadruplicate and stained with MitoRED to identify mitochondria after 1 hour of treatment. Statistical significance relative to untreated control is denoted with ** where P<0.01 and *** where P<0.001. Representative images of 100 μM 6-OHDA-treated MitoRED stained cultures (C) and 100 μM 6-OHDA and leptin116-130 co-treated MitoRED stained cultures are shown. Scale bar represents […].
The human neuroblastoma cell line, SH-SY5Y (ECACC, UK) was maintained in Dulbecco's Modified Eagle Medium supplemented with glucose ([…]) and 10% (v/v) cosmic calf serum (Fisher Scientific, UK) at 37° C. in a humidified atmosphere of 5% CO2, 95% air and allowed to reach 70-80% confluence before seeding. Cells (passage 10-18) were plated at 2×10^5 cells on 13 mm borosilicate class coverslips or at 10 000 cells per well in 96 well tissue culture plates (Nunc, VWR, UK) prior to treatment. Reagents used were (from Sigma UK unless stated) 1 nM human leptin, leptin (116-121), leptin (117-122) and leptin (117-125); 0.0001-1 nm murine leptin fragments leptin (116-121), leptin (117-122) and leptin (116-130); 100 μM 6-hydroxydopamine; 10 μM CuCl2; […] Aβ1-42.
Cells were treated with pre-warmed cell culture medium containing 1 μM MitoRed ((9-[2-(4′-Methylcoumarin-7′-oxycarbonyl)phenyl]-3,6-bis(diethylamino)xanthylium chloride) and returned to the incubator for 45 minutes. Following fixation in NBF for 15 minutes, cells were washed 3 times in PBS. Coverslips were mounted in fluorescence mountant onto microscope slides and imaged on the Zeiss Axio MR2 microscope. The mean mitochondrial area and index of fragmentation (number of mitochondria: total area of mitochondrial material) were calculated using Fiji.

Row | Substance | magnitude of LTP after HFS (100 Hz, 1 s) [1] | body weight [2] | food intake [2] | other results
1 | SCSLPQ (listed as Mus musculus) [leptin (116-121)] | 162±6.3 % of baseline | reduced food intake and body weight | reduced food intake and body weight | 
2 | leptin (22-56): leptin fragment amino acids 22-56 (Bachem), comparison fragment (VPIQKVQDDTKTLIKTIVTRINDISHTQSVSSKQK; UniProt P41159 22-56, looked up, fragment) [reference compound] |  |  |  | food intake [3]: significant reductions in food intake
3 | SCSLPQTSGLQKPES (listed as Mus musculus) [leptin (116-130)] |  | reduced food intake and body weight | reduced food intake and body weight | ratio of phosphorylated STAT3 to pan STAT3 [4]: increased markedly; ratio of phosphorylated Akt to pan Akt [5]: an increase in the ratio of phosphorylated Akt to pan Akt; mitochondrial clumping (fragmentation index) with 6-OHDA [6]: prevents 6-OHDA-associated mitochondrial clumping; mitochondrial swelling (mean mitochondrial area) with 6-OHDA [6]: prevents 6-OHDA-associated mitochondrial swelling
4 | CSLPQT (listed as Mus musculus) [leptin (117-122)] | 191±19.7 % of baseline |  |  | 
